According to the pKa sets of Baltruschat and Czodrowski (2020):

First: O=C(Nc1noc2ccccc12)N1CCN(Cc2cccc(Oc3ccc(Cl)cc3)c2)CC1
Second: OCCOCCN1CCN(C(c2ccccc2)c2ccc(Cl)cc2)CC1 (stereo unspecified)
The pKa of the first is lower: -4.7 for the first, 7.75 for the second.

Going from `c1cncc(Nc2c3ccccc3nc3ccccc23)c1` to `Clc1cccc(Nc2c3ccccc3nc3ccccc23)c1`, the pKa rises from 6.46 to 6.76.

Compared with `Cc1cc(Nc2c3ccccc3nc3ccccc23)ccc1NS(C)(=O)=O`, `CS(=O)(=O)Nc1ccc(Nc2c3ccccc3nc3ccccc23)cc1Cl` is lower in pKa: 7.08 for the first, 6.44 for the second.

First: CCCCCCOC(=O)c1ccc(OS(N)(=O)=O)cc1
Second: CCCCNCc1ccc(C(=O)c2csc(S(N)(=O)=O)c2)cc1.Cl
The pKa of the first is higher: 8.52 for the first, 8.12 for the second.

`COc1cc(NS(C)(=O)=O)ccc1Nc1c2ccccc2nc2c(OC)cccc12` and `CCOc1cccc2c(Nc3ccc(NS(C)(=O)=O)cc3OC)c3ccccc3nc12` are within 0.2 log units of each other in pKa: 7.39 for the first, 7.37 for the second.

Going from `CN(C)C1(CCCc2ccc(C(C)(C)C)cc2)COC1` to `CN(C)CCCCc1ccc(C(C)(C)C)cc1`, the pKa rises from 7.2 to 9.9.

`Cc1ccn2c(CC#N)c(C)nc2c1OCc1ccccc1` and `Cc1nc2c(OCc3ccccc3)cccn2c1CC#N` are within 0.2 log units of each other in pKa: 5.67 for the first, 5.5 for the second.

Compared with `CN1CCN(Cc2ccccc2S(=O)(=O)c2csc(S(N)(=O)=O)c2)CC1.Cl`, `NS(=O)(=O)c1cc(S(=O)(=O)c2ccc(O)cc2)cs1` is higher in pKa: 6.4 for the first, 7.46 for the second.

Compared with `Cc1cccc2c(Nc3ccc(NS(C)(=O)=O)cc3)c3ccccc3nc12`, `CS(=O)(=O)Nc1ccc(Nc2c3ccccc3nc3c(Cl)cccc23)cc1` is lower in pKa: 7.15 for the first, 5.92 for the second.

Going from `NC(N)=Nc1nc(CSCC/C(N)=N/S(N)(=O)=O)cs1` to `COc1cccc(S(=O)(=O)Nc2cccn(CC(=O)NCc3nc(C(=N)N)cs3)c2=O)c1`, the pKa rises from 7.1 to 8.8.

Going from `Cc1nc2c(OCc3ccccc3)cccn2c1N` to `Cc1nc2c(/C=C\c3ccccc3)cccn2c1C`, the pKa rises from 6.81 to 7.2.

Compared with `CC(=O)Nc1ccccc1Nc1c2ccccc2nc2ccccc12`, `Oc1ccccc1Nc1c2ccccc2nc2ccccc12` is higher in pKa: 7.24 for the first, 7.8 for the second.

Compared with `COc1cc(NS(C)(=O)=O)ccc1Nc1c2ccccc2nc2ncccc12`, `COc1cc(NS(C)(=O)=O)ccc1Nc1c2ccccc2nc2ccccc12` is higher in pKa: 6.09 for the first, 7.43 for the second.

Going from `CS(=O)(=O)Nc1ccc(Nc2c3ccccc3nc3cc(C#N)ccc23)cc1` to `CS(=O)(=O)Nc1ccc(Nc2c3ccccc3nc3cc(I)ccc23)cc1`, the pKa rises from 5.75 to 6.52.

Going from `CSc1ccc2c(c1)N(CCC1CCCCN1C)c1ccccc1S2` (stereo unspecified) to `CN1CCN(CCCN2c3ccccc3Sc3ccc(Cl)cc32)CC1`, the pKa falls from 9.5 to 8.1.

Compared with `C/C(=N\N=C(/S)N/N=C(\S)Nc1ccc(C(F)(F)F)cc1)c1ccccn1`, `C/C(=N\N=C(/S)N/N=C(\S)Nc1cccc(I)c1)c1ccccn1` is higher in pKa: 6.77 for the first, 7.03 for the second.

`CS(=O)(=O)Nc1ccc(Nc2c3ccccc3nc3ccccc23)cc1` and `CCCCCS(=O)(=O)Nc1ccc(Nc2c3ccccc3nc3ccccc23)cc1` are the same in pKa: 7.19 for the first, 7.19 for the second.

Compared with `O=C(c1ccccc1)c1ccc2n1CCC2C(=O)O` (stereo unspecified), `O=C(O)CCc1ccccc1` is higher in pKa: 3.5 for the first, 4.64 for the second.

`CC(=O)c1ccc(Nc2c3ccccc3nc3ccccc23)cc1` and `COC(=O)c1ccc(Nc2c3ccccc3nc3ccccc23)cc1` are within 0.2 log units of each other in pKa: 6.12 for the first, 6.21 for the second.

Going from `CS(=O)(=O)Nc1ccc(Nc2c3ccccc3nc3cc(N=[N+]=[N-])ccc23)cc1` to `COc1ccc2c(Nc3ccc(NS(C)(=O)=O)cc3)c3ccccc3nc2c1`, the pKa rises from 7 to 7.57.

First: Cc1nc2c(C/C=C/c3ccccc3)cccn2c1CC#N
Second: CCc1ccccc1Nc1c2ccccc2nc2ccccc12
The pKa of the first is lower: 6 for the first, 7.68 for the second.

Compared with `CS(=O)(=O)O.NC(=O)Cc1ccc(Nc2c3ccccc3nc3ccccc23)cc1`, `NS(=O)(=O)Cc1ccc(Nc2c3ccccc3nc3ccccc23)cc1` is lower in pKa: 7.43 for the first, 7.05 for the second.

Compared with `Cc1nc(N)nc(C)c1CNC(=O)Cn1c(C)ccc(NS(=O)(=O)Cc2ccccc2)c1=O`, `Cc1ccc(NS(=O)(=O)Cc2ccccc2)c(=O)n1CC(=O)NCc1cnc(N)nc1` is lower in pKa: 4.7 for the first, 3.9 for the second.

`COc1cc(NS(C)(=O)=O)ccc1Nc1c2ccccc2nc2cc(C)ccc12` and `COc1cc(NS(C)(=O)=O)ccc1Nc1c2ccccc2nc2cc(NC(C)=O)ccc12` are within 0.2 log units of each other in pKa: 7.7 for the first, 7.56 for the second.

First: Clc1ccccc1Nc1c2ccccc2nc2ccccc12
Second: COc1ccccc1Nc1c2ccccc2nc2ccccc12
The pKa of the first is lower: 6.55 for the first, 7.74 for the second.

`Cn1ccnc1` and `c1c[nH]cn1` are within 0.2 log units of each other in pKa: 7.12 for the first, 6.99 for the second.

Going from `CN1CCCC(n2nc(Cc3ccc(Cl)cc3)c3ccccc3c2=O)CC1` (stereo unspecified) to `CCS(=O)(=O)c1nc(S(=O)(=O)c2ccc(Cl)cc2)c(N2CCc3ccccc3C2)s1`, the pKa falls from 9.54 to -8.66.

First: NC(=O)CF
Second: NCCC(F)(F)F
The pKa of the first is higher: 22.3 for the first, 8.7 for the second.

First: CC(CN(C)C)CN1c2ccccc2CCc2ccccc21 (stereo unspecified)
Second: CN(C)C(=O)C1=C(C(=O)N(C)C)C2c3ccccc3C1c1ccccc12
The pKa of the first is higher: 9.24 for the first, -2.68 for the second.

Compared with `CN1C=CC(C2NC(C(Cl)(Cl)Cl)=CN2c2ccc(S(N)(=O)=O)cc2)C=C1` (stereo unspecified), `CC1=CN(c2ccc(S(N)(=O)=O)cc2)C(C2C=CN(C)C=C2)N1` (stereo unspecified) is lower in pKa: 7.89 for the first, 7.26 for the second.

Going from `FC(F)(F)c1c(N2CCC(c3ccccc3)CC2)ccn2c(CC3CC3)nnc12` to `c1ccc(CC2CCN(CCCc3c[nH]c4ccc(-n5cnnc5)cc34)CC2)cc1`, the pKa rises from 4.1 to 9.7.

First: O=P(O)(O)CCc1ccccc1
Second: O=C(O)c1coc2ccccc2c1=O
The pKa of the first is lower: 2.34 for the first, 8.85 for the second.

Compared with `Cc1ncc[nH]1`, `Nc1ncc[nH]1` is higher in pKa: 7.86 for the first, 8.46 for the second.

First: CN(C)CCCCc1ccc(C2COC2)cc1
Second: CN(C)CCCC1(c2ccc(C(C)(C)C)cc2)COC1
The pKa of the first is higher: 9.9 for the first, 9.6 for the second.

Going from `O=[N+]([O-])c1cc(Cl)c(N=C2NCCN2)c(Cl)c1` to `Clc1cccc(N=C2NCCN2)c1Cl`, the pKa rises from 6.86 to 8.55.

First: CN(C)CCCC(C)(C)c1ccc(C(C)(C)C)cc1
Second: CN(C)CC(C)(C)CCc1ccc(C(C)(C)C)cc1
The pKa of the first is higher: 9.8 for the first, 9.4 for the second.

Going from `Cc1cc(=O)n(-c2ccccc2)n1C` to `Cc1ccc(NS(=O)(=O)Cc2ccccc2)c(=O)n1CC(=O)NC[C@@H]1CNC(N)=N[C@@H]1C`, the pKa rises from 1.44 to 14.

`Cl.Fc1ccc2c(c1)N(CCCN1CCCC1)c1cc(F)ccc1CC2` and `Cl.Fc1ccc2c(c1)N(CCCN1CCOCC1)c1cc(F)ccc1CC2` are the same in pKa: 7.6 for the first, 7.6 for the second.

Compared with `CNC(=O)c1cccc2c(Nc3ccc(NS(C)(=O)=O)cc3OC)c3cccc(C)c3nc12`, `COc1cc(NS(C)(=O)=O)ccc1Nc1c2ccccc2nc2c(C(=O)NCC(N)=O)cccc12` is lower in pKa: 6.4 for the first, 6.18 for the second.

`Cc1cnc(NCC2(c3ccc(Cl)cc3)CCC2)c(=O)n1CC(=O)NCc1cnc(N)cn1` and `Cc1cnc(NCC(F)(F)c2ccc(F)cc2)c(=O)n1CC(=O)NCc1cnc(N)cn1` are the same in pKa: 2.7 for the first, 2.7 for the second.

First: CC(C)Oc1ncc(-c2nc(-c3cccc4c3OCCNC4CCCC(=O)O)no2)cc1Cl (stereo unspecified)
Second: CCc1cccc2c3c([nH]c12)C(CC)(CC(=O)O)OCC3 (stereo unspecified)
The pKa of the first is higher: 7.98 for the first, 4.7 for the second.

Going from `CS(=O)(=O)Nc1ccc(Nc2c3ccccc3nc3cc(S(C)(=O)=O)ccc23)cc1` to `CNc1ccc2c(Nc3ccc(NS(C)(=O)=O)cc3)c3ccccc3nc2c1`, the pKa rises from 5.65 to 9.3.

Going from `CS(=O)(=O)Nc1ccc(Nc2c3ccccc3nc3ccc([N+](=O)[O-])cc23)cc1` to `CS(=O)(=O)Nc1ccc(Nc2c3ccccc3nc3ccc(C(N)=O)cc23)cc1`, the pKa rises from 5.42 to 6.34.

Going from `Cc1nc(N)ncc1CNC(=O)Cn1c(C)cnc(NCCc2ccccc2)c1=O` to `Cc1cnc(NCC(F)(F)c2ccccc2)c(=O)n1CC(=O)NCc1cnc(N)cn1`, the pKa falls from 4.2 to 2.7.

First: BP(=O)(OC[C@H]1O[C@@H](n2cnc3c(N)nc(SC)nc32)[C@H](O)[C@@H]1O)OP(=O)(O)C(Cl)(Cl)P(=O)(O)O (stereo partly specified)
Second: BP(=O)(OC[C@H]1O[C@@H](n2cnc3c(N)ncnc32)[C@H](O)[C@@H]1O)OP(=O)(O)CP(=O)(O)O (stereo partly specified)
The pKa of the first is lower: 7 for the first, 8.4 for the second.

Compared with `COc1cccc(S(=O)(=O)Nc2cccn(CC(=O)NCc3ccc(C(=N)N)cc3F)c2=O)c1`, `COc1cc(NS(C)(=O)=O)ccc1Nc1c2ccccc2nc2c(C(=O)NCC(O)CO)cccc12` (stereo unspecified) is lower in pKa: 9.4 for the first, 6.34 for the second.

Going from `Ic1ccc(Nc2c3ccccc3nc3ccccc23)cc1` to `Cc1ccc(Nc2c3ccccc3nc3ccccc23)cc1`, the pKa rises from 6.9 to 7.72.

Compared with `NC(=O)CCc1ccc(Nc2c3ccccc3nc3ccccc23)cc1`, `O=[N+]([O-])c1ccc(Nc2c3ccccc3nc3ccccc23)cc1` is lower in pKa: 7.63 for the first, 5.58 for the second.

Compared with `CC(=O)N[C@@H](Cc1cc(F)cc(F)c1)[C@H](O)CNC1(c2cc(C(C)(C)C)ncn2)CCCCC1`, `CN1CC[C@H](N(C)C(=O)N2CC(c3cc(F)ccc3F)=C[C@@]2(CO)c2ccccc2)[C@H](F)C1` is higher in pKa: 6.7 for the first, 7.6 for the second.

First: O=C(O)CN(CCN(CC(=O)O)CC(=O)O)CCN(CC(=O)O)C(COCc1ccccc1)C(=O)O (stereo unspecified)
Second: CCCNC(=O)CN(CCN(CCN(CC(=O)O)CC(=O)O)CC(=O)O)CC(=O)O
The pKa of the first is higher: 2.07 for the first, 1.8 for the second.

Going from `CCCCc1nc(Cl)c(COC)n1Cc1ccc(NC(=O)c2ccccc2S(=O)(=O)O)cc1` to `COC(=O)Nc1ccc2c(Nc3ccc(NS(C)(=O)=O)cc3)c3ccccc3nc2c1`, the pKa rises from -6.6 to 7.48.

Compared with `Cc1ccc(C(=O)N(CCCN)[C@@H](c2oc3cc(Cl)ccc3c(=O)c2Cc2ccccc2)C(C)C)cc1`, `CCN(CC)CCCC(C)Nc1c2ccc(Cl)cc2nc2ccc(OC)cc12` (stereo unspecified) is higher in pKa: 8.5 for the first, 10.2 for the second.

First: COc1cc(NS(C)(=O)=O)ccc1Nc1c2ccccc2nc2c(C#N)cccc12
Second: CS(=O)(=O)Nc1ccc(Nc2c3ccccc3nc3cccnc23)cc1
The pKa of the first is lower: 4.87 for the first, 6.9 for the second.

Going from `Cc1cc(Cl)ccc1N=C1NCCN1` to `O=S(=O)(c1cccc(F)c1)c1ccc2c3c(oc2c1)C1(CCCOC1)NCC3` (stereo unspecified), the pKa falls from 9.99 to 7.5.

Going from `CSc1nccn1C` to `Fc1ncc[nH]1`, the pKa falls from 5.95 to 2.4.

Going from `CCn1c(=O)c2nc(-c3ccc(S(=O)(=O)NCCN(C)C)cc3)[nH]c2n(CC)c1=O` to `Cc1ccc(-c2nc3ccc(C)cn3c2CC(=O)N(C)C)cc1`, the pKa falls from 8 to 6.02.

Going from `CN(C)CC(F)(F)F` to `CN(C)C(=O)C1C2c3ccccc3C(c3ccccc32)C1C(=O)N(C)C` (stereo unspecified), the pKa falls from 4.8 to -1.34.

First: CN1CCC[C@H]1c1cccnc1
Second: COC(=O)C(c1ccccc1)C1CCCCN1 (stereo unspecified)
The pKa of the first is lower: 8.1 for the first, 9.24 for the second.

Compared with `Clc1ncc[nH]1`, `Nc1ncnc2c1ncn2[C@@H]1O[C@H](COS(=O)(=O)NC(=O)c2ccccc2)[C@@H](O)[C@H]1O` is lower in pKa: 3.55 for the first, 2.8 for the second.

First: FC1(F)CCNCC1
Second: N#Cc1ccc(Nc2c3ccccc3nc3ccccc23)cc1
The pKa of the first is higher: 8.5 for the first, 5.93 for the second.

Compound `CC(NCCC(c1ccccc1)c1ccccc1)c1ccccc1` (stereo unspecified) has a pKa of 9.04.
